How the values were obtained:
Conditions in all cases: incubation time: 72 h
[1] = system: BT-549; assay: normalised response (% of control), CellTiter-Glo; higher = more viable cells (100 = DMSO, 0 = benzethonium chloride kill control)
Summary of the method: (§1)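 CellTox Green fluorescence (485/520 nm) and, after 10 min at room temperature, CellTiter-Glo luminescence were read from breast cancer cell lines incubated 72 h in 384-well plates. Cells were seeded as 20 µl suspension onto compound at 5 concentrations in 10-fold steps over a 10,000-fold range chosen per compound. Each plate was normalised to 0.1 % DMSO (100) and a positive kill control (0). Values are normalised signals, one per concentration.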

[2] = system: MDA-MB-453; assay: as above
Summary of the method: as §1

[3] = system: BT-474; assay: as above
Summary of the method: as §1

[4] = system: CAL-148; assay: as above
Summary of the method: as §1

[5] = system: HDQ-P1; assay: as above
Summary of the method: as §1

[6] = system: HCC1143; assay: as above
Summary of the method: as §1

[7] = system: MDA-MB-436; assay: as above
Summary of the method: as §1

[8] = system: SK-BR-3; assay: as above
Summary of the method: as §1

[9] = system: HCC1937; assay: as above
Summary of the method: as §1

[10] = system: CAL-120; assay: as above
Summary of the method: as §1

[11] = system: MDA-MB-468; assay: as above
Summary of the method: as §1

[12] = system: HCC1599; assay: as above
Summary of the method: as §1

[13] = system: CAL-85-1; assay: as above
Summary of the method: as §1

[14] = system: MDA-MB-231; assay: as above
Summary of the method: as §1

[15] = system: DU-4475; assay: as above
Summary of the method: as §1

[16] = system: CAL-51; assay: as above
Summary of the method: as §1

[17] = system: MFM-223; assay: as above
Summary of the method: as §1

[18] = system: MCF-10A; assay: as above
Summary of the method: as §1

[19] = system: Hs578T; assay: as above
Summary of the method: as §1

[20] = system: BT-549; assay: normalised response (% of control), CellTox Green; higher = less cell death (100 = DMSO, 0 = benzethonium chloride kill control)
Summary of the method: as §1

[21] = system: MDA-MB-453; assay: as above
Summary of the method: as §1

[22] = system: BT-474; assay: as above
Summary of the method: as §1

[23] = system: CAL-148; assay: as above
Summary of the method: as §1

[24] = system: HCC1143; assay: as above
Summary of the method: as §1

[25] = system: MDA-MB-436; assay: as above
Summary of the method: as §1

[26] = system: HCC1937; assay: as above
Summary of the method: as §1

[27] = system: CAL-120; assay: as above
Summary of the method: as §1

[28] = system: MDA-MB-468; assay: as above
Summary of the method: as §1

[29] = system: HCC1599; assay: as above
Summary of the method: as §1

[30] = system: CAL-85-1; assay: as above
Summary of the method: as §1

[31] = system: MDA-MB-231; assay: as above
Summary of the method: as §1

[32] = system: DU-4475; assay: as above
Summary of the method: as §1

[33] = system: CAL-51; assay: as above
Summary of the method: as §1

[34] = system: MFM-223; assay: as above
Summary of the method: as §1

[35] = system: MCF-10A; assay: as above
Summary of the method: as §1

[36] = system: Hs578T; assay: as above
Summary of the method: as §1

[37] = system: HDQ-P1; assay: as above
Summary of the method: as §1

| Structure (SMILES) | normalised response [1] [%] | normalised response [2] [%] | normalised response [3] [%] | normalised response [4] [%] | normalised response [5] [%] | normalised response [6] [%] | normalised response [7] [%] | normalised response [8] [%] | normalised response [9] [%] | normalised response [10] [%] | normalised response [11] [%] | normalised response [12] [%] | normalised response [13] [%] | normalised response [14] [%] | normalised response [15] [%] | normalised response [16] [%] | normalised response [17] [%] | normalised response [18] [%] | normalised response [19] [%] | normalised response [20] [%] | normalised response [21] [%] | normalised response [22] [%] | normalised response [23] [%] | normalised response [24] [%] | normalised response [25] [%] | normalised response [26] [%] | normalised response [27] [%] | normalised response [28] [%] | normalised response [29] [%] | normalised response [30] [%] | normalised response [31] [%] | normalised response [32] [%] | normalised response [33] [%] | normalised response [34] [%] | normalised response [35] [%] | normalised response [36] [%] | normalised response [37] [%] |
| --- | --- | --- | --- | --- | --- | --- | --- | --- | --- | --- | --- | --- | --- | --- | --- | --- | --- | --- | --- | --- | --- | --- | --- | --- | --- | --- | --- | --- | --- | --- | --- | --- | --- | --- | --- | --- | --- |
| CCc1cncnc1N1CCN(Cc2nc3ccc(C(F)(F)F)cc3[nH]2)CC1 (1000 nM) | 83.6 | 94.8 | 96.7 | 103 | 103 | 102 | 106 | 112 | 91.1 | 98.1 | 90.3 | 98.8 | 97.7 | 99.4 | 93.4 | 67 | 106 | 103 | 98.5 | 109 | 94.2 | 102 | 100 | 79.2 | 84.2 | 111 | 98.6 | 114 | 97.5 | 106 | 98.9 | 104 | 97 | 101 | 111 | 100 | – |
| CC[C@@H]1C(=O)N(C)c2cnc(Nc3ccc(C(=O)NC4CCN(C)CC4)cc3OC)nc2N1C1CCCC1 [BI 2536] (100 nM) | 23.6 | 86.5 | 55.9 | 68.1 | 84 | 47.5 | 53.1 | 17.6 | 86.7 | 63.4 | 47.9 | 37.9 | 81.7 | 51 | 63.3 | 21.9 | 49.1 | 60.3 | 38.8 | 93 | 103 | 100 | 97.7 | 79.2 | 82.5 | 113 | 87.1 | 73.3 | 91.7 | 71.5 | 24.3 | 98.5 | 49.6 | 70.5 | 36.6 | 82 | – |
| O=C(O)CCCCC(CCSCc1ccccc1)SCc1ccccc1 (stereo unspecified) [CPI-613] (1000 nM) | 102 | 103 | 98.5 | 100 | 102 | 102 | 99.5 | 100 | 101 | 98.1 | 108 | 108 | 97.1 | 102 | 99.1 | 114 | 108 | 103 | 106 | 92.6 | 103 | 98.6 | 94.6 | 58.7 | 81.4 | 117 | 102 | 114 | 95.5 | 96.8 | 109 | 100 | 111 | 98.7 | 92.8 | 103 | – |
| COc1cc2c(Oc3ccc4[nH]c(C)cc4c3F)ncnc2cc1OCCCN1CCCC1 [Cediranib] (100 nM) | 108 | 102 | 104 | 103 | 102 | 97.3 | 106 | 103 | 98.1 | 103 | 111 | 98 | 100 | 103 | 97.3 | 107 | 97.9 | 95.4 | 104 | 126 | 105 | 104 | 106 | 112 | 90.2 | 123 | 96.8 | 98.6 | 102 | 91.2 | 113 | 98.4 | 109 | 84.1 | 98.1 | 97.6 | – |
| Cc1ccc(-c2cc(C(F)(F)F)nn2-c2ccc(S(N)(=O)=O)cc2)cc1 [Celecoxib] (1000 nM) | 107 | 99 | 100 | 91.3 | 100 | 99.9 | 101 | 101 | 109 | 98.1 | 99.8 | 99.6 | 93.3 | 96.4 | 94 | 118 | 100 | 112 | 107 | 115 | 105 | 101 | 104 | 104 | 105 | 111 | 101 | 121 | 99.1 | 104 | 106 | 101 | 117 | 96 | 81.4 | – | 112 |
| Nc1ncn([C@H]2C[C@H](O)[C@@H](CO)O2)c(=O)n1 [Decitabine] (1000 nM) | 77.8 | 112 | 90.3 | 83.5 | 93.2 | 90.4 | 97.3 | 85.5 | 87.9 | 91.7 | 26.2 | 103 | 105 | 98.4 | 90.1 | 83.6 | 96.5 | 93.5 | 93 | 116 | 84.1 | 98.6 | 103 | 80.5 | 100 | 110 | 93.6 | 115 | 101 | 89.9 | 121 | 97.4 | 77.8 | 93.6 | 78.9 | 112 | – |
| CC[C@H](Nc1ncnc2[nH]cnc12)c1nc2cccc(F)c2c(=O)n1-c1ccccc1 [GS-1101] (1000 nM) | 82.8 | 89.6 | 84.6 | 97.7 | 87.7 | 84.9 | 85.3 | 79.6 | 94.9 | 89.9 | 86.9 | 110 | 93.2 | 85.5 | 92.3 | 97.3 | 90.3 | 78.9 | 100 | 105 | 107 | 98.7 | 80.2 | 97.4 | – | – | 96.9 | 88.1 | 93.7 | 94.1 | 84.2 | 96.9 | 88.6 | 101 | 112 | 93.8 | 106 |
| C[C@H]1C[C@@H]2[C@H]([C@@H](O)C[C@@]3(C)[C@H]2CC[C@]3(O)C(=O)CO)[C@@]2(C)C=CC(=O)C=C12 [Methylprednisolone] (1000 nM) | 100 | 101 | 151 | 108 | 83.2 | 109 | 105 | 94.5 | 97.9 | 80.5 | 119 | 105 | 117 | 159 | 100 | 108 | 106 | 96.7 | 114 | 131 | 98.5 | 98.6 | 107 | 108 | – | 127 | 101 | 109 | 109 | 104 | 142 | 103 | 108 | – | 108 | 105 | 105 |
| COc1cc2c(NC3CCN(C(C)C)CC3)nc(C3CCCCC3)nc2cc1OCCCN1CCCC1 [UNC0638] (1000 nM) | 91.6 | 90.6 | 92.4 | 88.9 | 95.6 | 93.3 | 91.3 | 84.6 | 89.9 | 92.8 | 78.8 | 82.1 | 106 | 92 | 92.1 | 71.4 | 83.6 | 76.7 | 103 | 81.2 | 95.8 | 91.6 | 93 | – | 92.5 | 92.1 | 100 | 143 | 89.1 | 94.4 | 81.7 | 91.6 | 78.5 | 95.7 | 104 | 92.6 | – |
